Molecular target: T1, glucosamine-6-phosphate synthase (Escherichia coli, UniProt P17169)
T1 construct: allowed mutagenesis of a 2247 base pair region that included the entire glmS gene; made in house; host or cells: E. coli W3110-derived (DE3) production strains with integrated T7-glmS cassette; crude extract
Assay type: biochemical
Conditions: spectrophotometric assay, FIG. 5
Procedure: In the spectrophotometric assay, 1 mL reactions containing 50 mM KH2PO4/K2HPO4, 10 nM fructose-6-phosphate, 6 mM L-glutamine, 10 mM KCl, 0.6 mM acetylpyridine adenine dinucleotide (APAD), and 50-60 Units of L-glutamic dehydrogenase (Sigma Type II from bovine liver) were run at room temperature. The activity was followed by monitoring the absorbance at 365 nm after the addition of extract and corrected for the small absorbance increase observed in the absence of extract. The activity was calculated using a molar extinction coefficient for APAD of 9100.
Using the spectrophotometric assay for glucosamine-6-phosphate synthase as described in Example 2, the effects of glucosamine-6-phosphate and glucosamine on glucosamine-6-phosphate synthase were measured. For determination of product inhibition, assays were run in the presence of various concentrations of added glucosamine-6-phosphate.
The strains were grown overnight in LB broth containing 100 μg/mL ampicillin and 1 mM IPTC. […]
Strains 2123-12, 2123-49, 2123-54, 2123-124, 2123-149, and 2123-151, described in the examples above, were grown overnight in LB broth at 37° C. then transferred to fresh LB broth. Cultures were grown to an absorbance at 600 nm of 0.8 to 0.9, then induced for GlcN6P synthase production by the addition of 1 mM IPTG. […]

T1 sequence (P17169 2-609): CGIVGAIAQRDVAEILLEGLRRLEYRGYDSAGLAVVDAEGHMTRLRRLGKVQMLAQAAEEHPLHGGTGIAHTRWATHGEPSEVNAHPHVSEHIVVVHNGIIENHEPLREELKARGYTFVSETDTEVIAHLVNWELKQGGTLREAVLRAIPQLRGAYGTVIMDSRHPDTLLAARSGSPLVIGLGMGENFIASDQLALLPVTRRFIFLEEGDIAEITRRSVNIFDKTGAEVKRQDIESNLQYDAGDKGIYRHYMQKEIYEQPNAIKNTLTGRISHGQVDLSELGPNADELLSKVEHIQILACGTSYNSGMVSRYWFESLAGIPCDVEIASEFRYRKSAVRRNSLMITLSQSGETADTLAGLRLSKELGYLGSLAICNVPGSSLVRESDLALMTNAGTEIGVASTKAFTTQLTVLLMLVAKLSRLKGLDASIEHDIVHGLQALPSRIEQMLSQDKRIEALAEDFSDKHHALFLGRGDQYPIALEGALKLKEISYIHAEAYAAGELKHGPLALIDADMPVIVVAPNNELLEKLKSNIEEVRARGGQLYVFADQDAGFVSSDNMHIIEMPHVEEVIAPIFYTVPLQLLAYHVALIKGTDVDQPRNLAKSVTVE

N[C@H]1C(O)O[C@H](COP(=O)(O)O)[C@@H](O)[C@@H]1O (some centres unmarked) [glucosamine-6-phosphate]
Inhibition of glucosamine-6-phosphate synthase by the added substance: significantly inhibited

N[C@H]1C(O)O[C@H](CO)[C@@H](O)[C@@H]1O (some centres unmarked) [glucosamine]
Inhibition of glucosamine-6-phosphate synthase by the added substance: slightly inhibited

Source: patent US6372457B1, “Process and materials for production of glucosamine” (Arkion Life Sciences LLC, priority 1997, dated 2002)
